According to US11866704B2, “Nucleic acid molecules and uses thereof” (Macau University of Science and Technology, priority 2020, dated 2024):
m = 2'-O-methyl; r = 2'-OH (RNA)

Columns and labels:
LoVo cells [1] = experiment: Wound-healing assay on LoVo cells; assay type: cell-based; settings: 25 nM
Procedure: (§1) HCT-8, fluorouracil-resistant HCT-8, fluorouracil-resistant LoVo cell lines were cultured in RPMI Medium 1640 medium containing 10% FBS and 1% penicillin/streptomycin. LoVo cell line was cultured in F-12K medium containing 10% FBS and 1% penicillin/streptomycin. All cell lines above were cultured at humidified atmosphere containing 5% CO2 at 37° C.
(§2) In the wound-healing assay, HCT-8 or LoVo cells were plated in 6-well microplate at a density of 500,000 cells per well in 2 mL of culture medium and allowed to adhere for 24 h before treatment. […] A 1 mL bacteria-free pipette tip was used to make a cross-scratch at the bottom of 6-well microplate. The cells in the scratch were washed away using phosphor buffer solution and the 6-well microplate was photographed under a microscope. Single concentration of RNA molecules obtained in Example 1 to 4 in a mixture containing a gene delivery carrier, i.e. Lipofectamine™ RNAiMAX Transfection Reagent (Thermo Fisher Scientific, U.S.A.) were then added to the cells. The cells were then photographed under microscope at 24 and 48 h. ImageJ software was applied to quantify the area of wound created. Each experiment was carried out for three times. Results were expressed as means±standard deviation.

[2] = test system: LoVo colorectal adenocarcinoma cell line; experiment: MTT cytotoxicity assay on LoVo cells; assay type: cell-based
Procedure: as §1
(§3) In the cytotoxicity assay, exponentially growing cells of each cancer cell line were plated in 96-well microplate at a density of 5000 cells per well in 100 μL of culture medium and allowed to adhere for 24 h before treatment. Serial concentrations of RNA molecules obtained in Example 1 to 4 in a mixture containing a gene delivery carrier, i.e. Lipofectamine™ RNAiMAX Transfection Reagent (Thermo Fisher Scientific, U.S.A.) were then added to the cells. After treated for 48 h, MTT solution (50 μL per well, 1 mg/mL solution) was added to each well and incubated for 4 h at 37° C. Subsequently, 200 μL dimethyl sulfoxide (DMSO) were added and the optical densities of the resulting solutions were calorimetrically determined at 570 nm using a SpectraMax 190 microplate reader (Molecular Devices, Sunnyvale, CA, U.S.A). Dose-response curves were obtained, and the IC50 values were calculated by GraphPad Prism 5 (GraphPad, La Jolla, CA, USA). Each experiment was carried out for three times. IC50 results were expressed as means±standard deviation.

HCT-8 cells [3] = experiment: Wound-healing assay on HCT-8 cells; assay type: cell-based, human; settings: 50 nM
Procedure: as §1, §2

[4] = test system: LoVo/5-FU (5-FU-resistant strain of LoVo); experiment: MTT cytotoxicity assay on LoVo/5-FU cells; assay type: cell-based
Procedure: as §1, §3

HCT-8 cells [5] = experiment: Clonogenic assay on HCT-8 cells; assay type: cell-based, human; settings: 50 nM
Procedure: as §1
(§4) In the clonogenic assay, HCT-8 or LoVo cells were plated in 6-well microplate at a density of 1000 cells per well in 2 mL of culture medium and allowed to adhere for 24 h before treatment. Single concentration of RNA molecules obtained in Example 1 to 4 in a mixture containing a gene delivery carrier, i.e. Lipofectamine™ RNAiMAX Transfection Reagent (Thermo Fisher Scientific, U.S.A.) were then added to the cells. After treated for 48 h, discarded the drug solutions and replaced with 2 mL of fresh culture medium. After culture 14 days, discarded the culture medium and the cells were fixated with 4% paraformaldehyde fix solution for 20 min, followed by stained with crystal violet for 10 min and then washed by deionized water. The 6-well microplate was photographed and the number of colonies with more than 50 individual cells were counted using ImageJ software (U.S.A.). Each experiment was carried out for three times. Results were expressed as means±standard deviation.

[6] = test system: HCT-8 human ileocecal colorectal adenocarcinoma cell line; experiment: MTT cytotoxicity assay on HCT-8 cells; assay type: cell-based; settings: HCT-8
Procedure: as §1, §3

[7] = test system: HCT-8/5-FU (5-FU-resistant strain of HCT-8); experiment: MTT cytotoxicity assay on HCT-8/5-FU cells; assay type: cell-based, human
Procedure: as §1, §3

LoVo cells [8] = experiment: Clonogenic assay on LoVo cells; assay type: cell-based; settings: 25 nM
Procedure: as §1, §4

[9] = among EC83 mimic and modified mimics

Substance: EC83-M2 mimic: modified EC83 dsRNA; antisense SEQ ID NO: 2 GCCGAAGUGGCGAAAUC[Gm]GUAG, sense SEQ ID NO: 5 CUACCGAUUUCGCCACUUCGGC (antisense GCCGAAGUGGCGAAAUCGGUAG; antisense: sugars from the 5' end r17 m1 r4, backbone not given here; sense: RNA, backbone not given here; tRNA-derived fragment mimic duplex)
- wound healing inhibition ranking (FIG. 9B) (LoVo cells [1]; [9]): strongest inhibition effect on the wound healing
- wound area, inhibition of migration (FIG. 9B) (LoVo cells [1]; vs control group): significantly inhibit the migration
- effect on growth and proliferation (FIGS. 7A, 7B) ([2]; 6.25-100 nM): dose-dependent effect on inhibiting the growth and proliferation
- IC50 ([2]; MTT, 48 h treatment): 19.9 nM
- wound healing inhibition ranking (FIG. 9A) (HCT-8 cells [3]; [9]): strongest inhibition effect on the wound healing
- wound area, inhibition of migration (FIG. 9A) (HCT-8 cells [3]; vs control group): significantly inhibit the migration
- effect on growth and proliferation (FIGS. 7A, 7B) ([4]; 6.25-100 nM): dose-dependent effect on inhibiting the growth and proliferation
- IC50 ([4]; MTT, 48 h treatment): 18.3 nM
- anti-proliferation activity ranking (FIG. 8A) (HCT-8 cells [5]; [9]): strongest anti-proliferation activity
- colony number, inhibition of proliferation (FIG. 8A) (HCT-8 cells [5]; vs control group): significantly inhibit the proliferation
- effect on growth and proliferation (FIGS. 7A, 7B) ([6]; 6.25-100 nM): dose-dependent effect on inhibiting the growth and proliferation
- IC50 ([6]; MTT, 48 h treatment): 58.9 nM
- effect on growth and proliferation (FIGS. 7A, 7B) ([7]; 6.25-100 nM): dose-dependent effect on inhibiting the growth and proliferation
- IC50 ([7]; MTT, 48 h treatment): 48.8 nM
- anti-proliferation activity ranking (FIG. 8B) (LoVo cells [8]; [9]): strongest anti-proliferation activity
- colony number, inhibition of proliferation (FIG. 8B) (LoVo cells [8]; vs control group): significantly inhibit the proliferation
